Reference: patent US12655151B2, “Ion channel modulators” (Praxis Precision Medicines, Inc., priority 2019, dated 2026)

Target: T1, human NaV1.6 (hNaV1.6) (Homo sapiens, UniProt Q9UQD0)
T1 construct: expressed in transfected cells; host or cells: HEK-293 (G418 selection)
Assay: Modulation of late sodium current (INaL) at hNaV1.6, PatchXpress electrophysiology
Type: cell-based
Conditions: HEK293, HEK-293 cells expressing recombinant human NaV1.6, late current evoked by 300 nM ATX-II, read-out: NaV 1.6 Assay Data (percent inhibition of INaL at hNaV1.6)
Description: Functional characterization of exemplary compounds to modulate INaL expressed by the NaV1.6 voltage-gated sodium channel was accomplished using the PatchXpress™ high throughput electrophysiology platform (Molecular Devices, Sunnyvale, CA). HEK-293 cells expressing recombinant, human NaV1.6 (hNaV1.6) were grown in DMEM/high-glucose Dulbecco's modified, 10% FBS, 2 mM sodium pyruvate, 10 mM HEPES and 400 μg/mL G418. Cells were grown to 50%-80% confluency prior to harvesting. Trypsinized cells were washed, allowed to recover for 1 hour and then resuspended in extracellular recording solution at a concentration of 1×10^6 cells/ml. The onboard liquid handling facility of the PatchXpress was used for dispensing cells and applying test compounds. NaV late currents were evoked by the application of 300 nM ATX-II. INaL was evoked by depolarizing pulses to 0 mV for 200 ms from a non-inactivating holding potential (e.g., −120 mV) at a frequency of 0.1 Hz. INaL amplitude and stability were determined by analyzing the mean current amplitude over the final 20 ms of the test pulse. Following steady state block with exemplary compounds (e.g., as described herein), a Na+ free solution containing an impermeant cation (e.g., Choline or NDMG) was added to confirm the identity of the sodium current. Percent steady-state inhibition of INaL was calculated as: […], where INaL_compound and INaL_control represent INaL recorded in the presence or absence of compound, respectively.
Results from this assay relating to percent inhibition of INaL at hNaV1.6 (measured using a procedure similar to described above but using HEK-293 cells expressing recombinant, human NaV 1.6 (h NaV 1.6) at 1 μM are summarized in Table 1 below. In this table, “A” indicates inhibition of less than 30%; “B” indicates inhibition of between about 30% to about 70%; and “C” indicates inhibition of greater than 70%. “N/A” indicates not available.

T1 sequence (Q9UQD0 whole entry): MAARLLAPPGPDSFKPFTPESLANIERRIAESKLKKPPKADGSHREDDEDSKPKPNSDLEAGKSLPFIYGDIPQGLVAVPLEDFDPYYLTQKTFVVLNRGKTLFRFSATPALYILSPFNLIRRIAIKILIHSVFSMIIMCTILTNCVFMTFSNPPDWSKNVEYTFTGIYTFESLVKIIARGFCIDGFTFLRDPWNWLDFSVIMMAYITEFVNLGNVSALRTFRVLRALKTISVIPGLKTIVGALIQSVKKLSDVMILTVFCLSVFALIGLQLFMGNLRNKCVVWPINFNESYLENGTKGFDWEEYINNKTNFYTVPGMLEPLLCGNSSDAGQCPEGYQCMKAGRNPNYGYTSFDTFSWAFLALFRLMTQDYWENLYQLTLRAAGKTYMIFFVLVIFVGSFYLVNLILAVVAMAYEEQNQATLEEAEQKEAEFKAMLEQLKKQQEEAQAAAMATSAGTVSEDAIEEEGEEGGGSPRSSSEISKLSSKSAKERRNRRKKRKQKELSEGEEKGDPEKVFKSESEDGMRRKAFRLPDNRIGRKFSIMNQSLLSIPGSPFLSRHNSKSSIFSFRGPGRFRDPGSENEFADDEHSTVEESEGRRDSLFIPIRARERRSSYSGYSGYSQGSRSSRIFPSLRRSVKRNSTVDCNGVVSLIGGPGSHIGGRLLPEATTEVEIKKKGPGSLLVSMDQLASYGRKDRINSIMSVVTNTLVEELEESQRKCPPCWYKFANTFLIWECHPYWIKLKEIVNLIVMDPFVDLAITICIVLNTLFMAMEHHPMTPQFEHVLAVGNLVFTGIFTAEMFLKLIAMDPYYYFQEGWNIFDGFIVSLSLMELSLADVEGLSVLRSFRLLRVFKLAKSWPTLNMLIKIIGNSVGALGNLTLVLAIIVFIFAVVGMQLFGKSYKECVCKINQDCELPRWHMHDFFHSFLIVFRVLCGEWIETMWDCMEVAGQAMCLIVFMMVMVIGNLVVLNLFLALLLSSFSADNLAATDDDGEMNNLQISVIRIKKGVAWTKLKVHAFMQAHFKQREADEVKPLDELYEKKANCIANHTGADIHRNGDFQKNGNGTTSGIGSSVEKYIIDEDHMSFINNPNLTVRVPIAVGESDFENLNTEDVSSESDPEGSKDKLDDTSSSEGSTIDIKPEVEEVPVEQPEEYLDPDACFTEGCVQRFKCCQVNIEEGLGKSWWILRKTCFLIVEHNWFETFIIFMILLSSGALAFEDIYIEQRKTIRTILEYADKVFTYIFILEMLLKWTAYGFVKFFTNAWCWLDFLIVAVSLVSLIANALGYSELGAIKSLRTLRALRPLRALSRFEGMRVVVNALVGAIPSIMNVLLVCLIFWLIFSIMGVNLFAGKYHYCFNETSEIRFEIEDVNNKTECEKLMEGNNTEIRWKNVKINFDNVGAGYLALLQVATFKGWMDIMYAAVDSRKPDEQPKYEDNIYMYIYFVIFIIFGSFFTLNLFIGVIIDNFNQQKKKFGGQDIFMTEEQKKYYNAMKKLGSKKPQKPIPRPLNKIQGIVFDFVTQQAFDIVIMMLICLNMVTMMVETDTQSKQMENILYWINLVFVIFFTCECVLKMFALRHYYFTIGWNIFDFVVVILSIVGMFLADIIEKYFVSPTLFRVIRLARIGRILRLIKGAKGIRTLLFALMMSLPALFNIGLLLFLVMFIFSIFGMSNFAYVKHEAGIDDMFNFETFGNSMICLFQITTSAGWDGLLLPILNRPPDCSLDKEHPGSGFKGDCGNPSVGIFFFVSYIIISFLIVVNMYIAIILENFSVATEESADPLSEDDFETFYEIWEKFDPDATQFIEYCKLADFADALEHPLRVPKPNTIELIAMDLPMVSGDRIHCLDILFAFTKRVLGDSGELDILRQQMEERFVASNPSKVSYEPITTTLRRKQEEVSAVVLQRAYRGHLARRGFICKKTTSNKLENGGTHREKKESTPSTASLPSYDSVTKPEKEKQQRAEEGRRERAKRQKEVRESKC

inhibition at 1 µM [%]	Structure (SMILES)
> 70	COC(F)(F)c1nnc2cnc(-c3ccc(O[C@H](C4CC4)C(F)(F)F)nc3)cn12 (single isomer, unassigned) [Compound 5]
> 70	COC(F)(F)c1nnc2cnc(-c3ccc(O[C@@H](C4CC4)C(F)(F)F)nc3)cn12 (single isomer, unassigned) [Compound 6]
> 70	COC(F)(F)c1nnc2cnc(-c3ccc(O[C@H](C)C(F)F)nc3)cn12 (single isomer, unassigned) [Compound 9]
> 70	COC(F)(F)c1nnc2cnc(-c3ccc(O[C@@H](C)C(F)F)nc3)cn12 (single isomer, unassigned) [Compound 10]
> 70	CC[C@@H](Oc1ccc(-c2cn3c(C(F)(F)OC)nnc3cn2)cn1)C(F)(F)F (single isomer, unassigned) [Compound 13]
> 70	CC[C@H](Oc1ccc(-c2cn3c(C(F)(F)OC)nnc3cn2)cn1)C(F)(F)F (single isomer, unassigned) [Compound 14]
> 70	COC(F)(F)c1nnc2cnc(-c3ccc(O[C@H](C)C(C)(F)F)nc3)cn12 (single isomer, unassigned) [Compound 15]
30 to 70	COC(F)(F)c1nnc2cnc(-c3ccc(O[C@@H](C)C(C)(F)F)nc3)cn12 (single isomer, unassigned) [Compound 16]
> 70	CCOC(F)(F)c1nnc2cnc(-c3ccc(O[C@H](CC)C(F)(F)F)nc3)cn12 (single isomer, unassigned) [Compound 19]
> 70	CCOC(F)(F)c1nnc2cnc(-c3ccc(O[C@@H](CC)C(F)(F)F)nc3)cn12 (single isomer, unassigned) [Compound 20]
> 70	CCOC(F)(F)c1nnc2cnc(-c3ccc(O[C@H](C)C(F)F)nc3)cn12 (single isomer, unassigned) [Compound 23]
> 70	CCOC(F)(F)c1nnc2cnc(-c3ccc(O[C@@H](C)C(F)F)nc3)cn12 (single isomer, unassigned) [Compound 24]
> 70	CCOC(F)(F)c1nnc2cnc(-c3ccc(O[C@H](C(C)C)C(F)(F)F)nc3)cn12 (single isomer, unassigned) [Compound 25]
30 to 70	CCOC(F)(F)c1nnc2cnc(-c3ccc(O[C@@H](C(C)C)C(F)(F)F)nc3)cn12 (single isomer, unassigned) [Compound 26]
> 70	COC(F)(F)c1nnc2cnc(-c3ccc(O[C@@H](C(C)C)C(F)(F)F)nc3)cn12 (single isomer, unassigned) [Compound 27]
> 70	COC(F)(F)c1nnc2cnc(-c3ccc(O[C@H](C(C)C)C(F)(F)F)nc3)cn12 (single isomer, unassigned) [Compound 28]
> 70	CCOC(F)(F)c1nnc2cnc(-c3ccc(O[C@H](C4CC4)C(F)(F)F)nc3)cn12 (single isomer, unassigned) [Compound 29]
> 70	CCOC(F)(F)c1nnc2cnc(-c3ccc(O[C@@H](C4CC4)C(F)(F)F)nc3)cn12 (single isomer, unassigned) [Compound 30]
> 70	C[C@@H](Oc1ccc(-c2cn3c(C(F)(F)OC4CC4)nnc3cn2)cn1)C(F)(F)F [Compound 1, (R)-3-(cyclopropoxydifluoromethyl)-6-(6-((1,1,1-trifluoropropan-2-yl)oxy)pyridin-3-yl)-[1,2,4]triazolo[4,3-a]pyrazine]
> 70	C[C@H](Oc1ccc(-c2cn3c(C(F)(F)OC4CC4)nnc3cn2)cn1)C(F)(F)F [Compound 2, (S)-3-(cyclopropoxydifluoromethyl)-6-(6-((1,1,1-trifluoropropan-2-yl)oxy)pyridine-3-yl)-[1,2,4]triazolo[4,3-a]pyrazine]
> 70	CCOC(F)(F)c1nnc2cnc(-c3ccc(O[C@@H](C)C(F)(F)F)nc3)cn12 [Compound 3, (S)-3-(ethoxydifluoromethyl)-6-(6-((1,1,1-trifluoropropan-2-yl)oxy)pyridin-3-yl)-[1,2,4]triazolo[4,3-a]pyrazine]
> 70	CCOC(F)(F)c1nnc2cnc(-c3ccc(OC(C4CC4)C(F)(F)F)nc3)cn12 (stereo not drawn) [Compound 4, 6-(6-(1-cyclopropyl-2,2,2-trifluoroethoxy)pyridin-3-yl)-3-(ethoxydifluoromethyl)-[1,2,4]triazolo[4,3-a]pyrazine]
> 70	COC(F)(F)c1nnc2cnc(-c3ccc(OC(C(C)C)C(F)(F)F)nc3)cn12 (stereo not drawn) [Compound 7, 3-(difluoro(methoxy)methyl)-6-(6-((1,1,1-trifluoro-3-methylbutan-2-yl)oxy)pyridin-3-yl)-[1,2,4]triazolo[4,3-a]pyrazine]
> 70	CCCOC(F)(F)c1nnc2cnc(-c3ccc(OCC(F)(F)F)nc3)cn12 [Compound 8, 3-[difluoro(propoxy)methyl]-6-[6-(2,2,2-trifluoroethoxy)-3-pyridyl]-[1,2,4]triazolo[4,3-a]pyrazine]
> 70	CC(C)OC(F)(F)c1nnc2cnc(-c3ccc(OCC(F)(F)F)nc3)cn12 [Compound 11, 3-[difluoro(isopropoxy)methyl]-6-[6-(2,2,2-trifluoroethoxy)-3-pyridyl]-[1,2,4]triazolo[4,3-a]pyrazine]
> 70	CCCOC(F)(F)c1nnc2cnc(-c3ccc(O[C@H](C)C(F)(F)F)nc3)cn12 [Compound 17, 3-[difluoro(propoxy)methyl]-6-[6-[(1R)-2,2,2-trifluoro-1-methyl-ethoxy]-3-pyridyl]-[1,2,4]triazolo[4,3-a]pyrazine]
> 70	CC(C)OC(F)(F)c1nnc2cnc(-c3ccc(O[C@H](C)C(F)(F)F)nc3)cn12 [Compound 18, 3-[difluoro(isopropoxy)methyl]-6-[6-[(1R)-2,2,2-trifluoro-1-methyl-ethoxy]-3-pyridyl]-[1,2,4]triazolo[4,3-a]pyrazine]
> 70	CCCOC(F)(F)c1nnc2cnc(-c3ccc(O[C@@H](C)C(F)(F)F)nc3)cn12 [Compound 21, (S)-3-(difluoro(propoxy)methyl)-6-(6-((1,1,1-trifluoropropan-2-yl)oxy)pyridin-3-yl)-[1,2,4]triazolo[4,3-a]pyrazine]
> 70	CC(C)OC(F)(F)c1nnc2cnc(-c3ccc(O[C@@H](C)C(F)(F)F)nc3)cn12 [Compound 22, (S)-3-(difluoro(isopropoxy)methyl)-6-(6-((1,1,1-trifluoropropan-2-yl)oxy)pyridin-3-yl)-[1,2,4]triazolo[4,3-a]pyrazine]

Structure (SMILES)	inhibition at 1 µM [%]
COC(F)(F)c1nnc2cnc(-c3ccc(OC4CC(F)(F)C4(F)F)nc3)cn12 (stereo not drawn) [Compound 12, 3-(difluoro(methoxy)methyl)-6-(6-(2,2,3,3-tetrafluorocyclobutoxy)pyridin-3-yl)-[1,2,4]triazolo[4,3-a]pyrazine]	> 70
